The subject of assay [1] is HMC-1.2. As to the kind of experiment: Induction of apoptosis in human HMC-1.2 cells by flow cytometry. The class given is functional, cell-based.
The nature of assay [2]: cells. The following applies: Homo sapiens, Mast cell. It is filed as functional, tissue-based.
Description: Growth inhibition of human neoplastic mast cells incubated for 24 to 48 hrs
Assay [3] is described as follows: Inhibition of IgE-dependent histamine release in normal human blood basophils. The following applies: Basophil. It is filed as functional, tissue-based.

Active and inactive are the calls of the source. The rule behind the calls is not given here.

With `CO[C@@H]1[C@H](N(C)C(=O)c2ccccc2)C[C@H]2O[C@]1(C)n1c3ccccc3c3c4c(c5c6ccccc6n2c5c31)C(=O)NC4`, the outcome in assay [1] was Active.

For `CN(C(=O)c1ccccc1)[C@@H]1C[C@H]2O[C@@](C)([C@@H]1O)n1c3ccccc3c3c4c(c5c6ccccc6n2c5c31)C(=O)NC4`, the IC50 in assay [2] was determined as 50 nM; in assay [3], 10 nM. Moreover, the result in assay [1] was Active.

Compound `CO[C@@H]1[C@H](N(C)C(=O)c2ccccc2)C[C@H]2O[C@]1(C)n1c3ccccc3c3c4c(c5c6ccccc6n2c5c31)C(=O)NC4O` (stereo partly specified) gave an IC50 in assay [3] of 10 nM. Further, in assay [1], the result was inactive.

(Values after ChEMBL document CHEMBL4725462, “Biotransformation: Impact and Application of Metabolism in Drug Discovery” (ACS Med Chem Lett, 2020).)
